{"source": "patent US20240398822A1", "about": "“METHODS AND COMPOSITIONS FOR TREATING AND MANAGING ALZHEIMER'S DISEASE” (Pharmatrophix, Inc., priority 2021, published 2024)", "assay_type_in_all_cases": "in vivo, human", "key": {"p-tau": {"tested_on": "p-tau", "assay": "Phase IIa CSF p-tau", "conditions": "combined drug group", "text": "(§1) CSF samples were obtained at screening Visit and final Visit via lumbar puncture to determine levels of tau, p-tau, Aβ40, Aβ42 and AChE activity as an initial set of CSF biomarkers. Aliquots of CSF were made available for emerging CSF biomarker methods such as measurement of additional biomarkers including neurofilaments light chain, neurogranin, SNAP-25, synaptotagmin, YKL-40, TREM2, tau oligomers and for measurement of drug level in selected patients based on the time period between last dose of drug and CSF sampling (FIG. 25 and FIG. 58).\n(§2) Baseline CSF samples are obtained prior to administration via lumbar puncture. These samples are used to determine levels of tau, p-tau, Aβ40, Aβ42, AChE, neurofilament light chain, SNAP-25, synaptotagmin-1, neurogranin, sTREM, and YKL-40. Aliquots of CSF are also made available for emerging CSF biomarker methods such as measurement of tau oligomers and for measurement of drug level in selected patients based on time period between last dose of the salt of Formula (II) and CSF sampling. […] Many of these biomarkers can also be measured in blood or plasma. The change in values over the time period from pre-treatment to post-treatment are of particular importance. […]"}, "[1]": {"tested_on": "patients with mild to moderate Alzheimer's disease", "assay": "Phase IIa structural MRI (regions of interest and voxel-based whole brain analysis)", "description": "Volumetric MRI is conduction at the first and final visits. Volumetric analyses of the whole brain, hippocampus and other regions of interest are conducted. Measures of regional volumes as determined by MRI are regarded as standard measures of brain degeneration that are known to occur in AD. Volumes of the lateral ventricles are also assessed. Increasing ventricular volume is a marker for a diffuse increase in brain atrophy. […] The following Regions of interest were investigated in the ITT population: MRI Volume of the lateral ventricles in mm3—longitudinal stream change, MRI Average volume of the hippocampus in mm3—longitudinal stream change, MRI Average Volume of the entorhinal cortex in mm3—longitudinal stream change, MRI Total brain volume in mm3 change. Baseline and final Visit MRI scan were used to measure interval changes in volumes. Various cortical regions such as the Cingulate cortex were also assessed. […] The identified brain regions are similar in distribution to those having been previously identified to be particularly vulnerable to degeneration in AD.\nFor this analysis, the drug treatment group contains subject treated with either 200 or 400 mg doses. […] FIGS. 46A-46C show group x time interaction patterns using T1-weighted structural MRI. Contrast estimate plots show the magnitude and direction of the interaction effects observed in the flexible factorial GLM. […] Therefore, if the actual observed ratio of t-values is close to equivalent in the input map at a given p and k threshold, the MCS ratio and p-value will tend to support the null hypothesis of no drug effect. […] Increased thickness is similar to increased volume and means less degeneration. Here increased gyrification means increased atrophy."}, "CSF biomarkers": {"tested_on": "CSF biomarkers", "assay": "Phase IIa CSF biomarkers, whole panel", "text": "as §1, §2"}, "neurogranin": {"tested_on": "neurogranin", "assay": "Phase IIa CSF post-synaptic biomarker neurogranin (NG-36)", "text": "as §1\nBaseline CSF samples are obtained prior to administration via lumbar puncture. These samples are used to determine levels of tau, p-tau, Aβ40, Aβ42, AChE, neurofilament light chain, SNAP-25, synaptotagmin-1, neurogranin, sTREM, and YKL-40. Aliquots of CSF are also made available for emerging CSF biomarker methods such as measurement of tau oligomers and for measurement of drug level in selected patients based on time period between last dose of the salt of Formula (II) and CSF sampling. […] Many of these biomarkers can also be measured in blood or plasma. The change in values over the time period from pre-treatment to post-treatment are of particular importance. […] Absolute levels at single time points of neurofilament light chain, SNAP-25, synaptotagmin-1, neurogranin, sTREM, and YKL-40 in CSF or blood or plasma are of less value given differences in assay techniques and wide variation in absolute levels within normal subjects and within and across AD subjects. In contrast, absolute levels of Aβ42 and 40 at baseline are useful biomarkers indicating the presence of amyloid pathology as low levels of Aβ42 and 40 at a given time point are consistent with amyloid pathology."}, "[2]": {"tested_on": "patients with mild to moderate Alzheimer's disease", "assay": "Phase IIa cognitive testing (ADAS-cog, MMSE)", "description": "Exploratory outcome evaluations involved the assessment of cognitive and clinical function (Table 1). […] Items from the Neurological Testing Battery (NTB), together with the ADAS-Cog 13, Spatial Navigation Test (AMUNET) were performed at Baseline, Week 12 and Week 26 (Visits 2, 4 and 5). While the MMSE was used primarily as a screening and baseline disease staging tool, its repeated administration at Week 26 provided an additional exploratory cognitive outcome measure. The Geriatric Depression Scale (GDS) was assessed at each Visit (Screening, Baseline, Week 4, 12, 26: Visits 1-5) and the Clinical Global Impression test (CGI) with Severity was assessed at Screening (Visit 1) and then the Improvement was subsequently assessed at Weeks 12 and 26 (Visits 4 and 5). For each test, whether categorical or numeric, all raw scores were considered interval in nature. The change from Screening (Week −8) or Baseline (Week 0) was therefore be derived for each patient. Actual values at each Visit and Changes from Screening/Baseline were summarized.\nAlzheimer's Disease Assessment Scale—13 items (total score=85) is used as a parameter for exploratory outcome analysis. ADAS-cog is a psychometric instrument designed to evaluate the severity of cognitive and non-cognitive behavioral dysfunctions characteristic of people with AD. The cognitive portion assesses memory, language and praxis functions. Most items are rated on a scale of 0 to 5, where 0 indicates no impairment and 1 to 5 indicates very mild (1), mild (2), moderate (3), moderately severe (4) or severe impairment (5) respectively. Other items are rated on the presence or absence of a characteristic number of errors or severity of errors. The total scores from the ADAS-cog sub-scales range from 0 (no impairment) to 85 (errors in all sub-tests).\nA positive (i.e. increasing) change of the score indicates cognitive worsening. In a meta-analysis model of 52 Alzheimer's Disease trials involving 19,972 mild-moderate disease subjects, a spontaneous decline in performance corresponding to an increase in ADAS-cog score of 5.5 points over one year, pointing to an expected average increase in score of 2.75 points over a 6-month period.\nADAS-Cog was assessed at Visits 2, 4 and 5, as well as at the early discontinuation Visit, if applicable.\nWhile the MMSE was used primarily as a screening and baseline disease-staging tool, its administration at Week 26 provided an additional exploratory cognitive outcome measure.\nMini Mental Status Exam (MMSE). The MMSE can be used by a physician to evaluate a patient's condition over the course of administration. A baseline value prior to administration of a salt of Formula (II) can serve as a basis for baseline disease stage and also for the assessment of the effect of treatment on slowing loss of cognitive function. The expected decline in MMSE over a six month period generally ranges 1-3 points out of the total of 30 points possible in the MMSE test."}}, "note": "Entries after “also recorded” stand apart in the source; their conditions may differ."}
{"compound": "CC[C@H](C)[C@H](N)C(=O)NCCN1CCOCC1", "note": "[LM11A-31-BHS, Tris[(2S,3S)-2-amino-3-methyl-N-(2-morpholinoethyl)pentanamide] tetra(monohydrogensulfate), monosulfate]", "values": [{"measurement": "CSF p-tau, drug versus placebo", "setting": "p-tau", "result": "trend for the drug to inhibit the trend to rise in p-tau"}, {"measurement": "cortical thickness and gyrification", "setting": "[1]; anterior cingulate region area 33 prime", "result": "drug effect on improving cortical thickness or decreasing gyrification"}, {"measurement": "hippocampal (HC) volume, sMRI", "setting": "[1]; combined drug group, 6-month period, p=0.006", "result": "significant increase in HC volume"}, {"measurement": "volume of the dentate gyrus", "setting": "[1]; drug group, humans", "result": "promotes increased volume of the dentate gyrus; also recorded: significant increase in the volume of the dentate gyrus"}, {"measurement": "voxel-wise T1-weighted structural MRI, loss of volume, dose analysis", "setting": "[1]; flexible factorial GLM, p<0.05 and cluster size >100", "result": "significant effect at both the 200 and 400 mg doses in slowing loss of volume"}, {"measurement": "volume loss in voxel-based whole brain MRI, drug versus placebo", "setting": "[1]; treatment period", "result": "slow volume loss in brain regions known to be particularly vulnerable to degeneration in AD"}, {"measurement": "voxel-wise structural MRI volume loss, age analysis", "setting": "[1]; younger <72 years, older >=72 years", "result": "significant drug effect in both age groups"}, {"measurement": "drug effect across all CSF biomarkers by age group", "setting": "CSF biomarkers; <72 years versus >=72 years", "result": "the drug effect was in general greater in the younger versus older group"}, {"measurement": "effect on biomarkers indicating neuronal degeneration, gliosis and neuro-inflammation", "setting": "CSF biomarkers; CSF, pre-treatment to post-treatment", "result": "ability to slow progression of increase of biomarkers indicating neuronal degeneration, gliosis and neuro-inflammation"}, {"measurement": "CSF neurogranin-36, drug dose analysis", "setting": "neurogranin; 200 mg dose versus placebo", "result": "significant lowering of NG-36"}, {"measurement": "CSF neurogranin-36, drug dose analysis", "setting": "neurogranin; 400 mg dose versus placebo", "result": "trend for reduction"}, {"measurement": "CSF neurogranin levels in the drug group", "setting": "neurogranin; combined drug group, 6 months, p=0.02", "result": "significant decrease"}, {"measurement": "ADAS-cog-11, drug dose analysis", "setting": "[2]; 200 mg bid and 400 mg bid versus placebo", "result": "trend for decreased worsening of cognitive scores at both doses"}, {"measurement": "ADAS-cog-13, drug dose analysis", "setting": "[2]; 200 and 400 mg groups versus placebo", "result": "nominal decrease in the increase in score"}, {"measurement": "slowing trend in clinical outcome measures", "setting": "[2]; at 6 months, phase 2a study", "result": "30-45%"}, {"measurement": "worsening of ADAS-13 and -11 scores, drug versus placebo", "setting": "[2]; combined drug group, 26 weeks, does not reach statistical significance", "result": "trend in slowing the worsening"}, {"measurement": "directionality of slowing progression of worsening in ADAS-cog and MMSE", "setting": "[2]; drug versus placebo", "result": "favorable effect of drug treatment"}, {"measurement": "trends for slower progression of ADAS-cog and MMSE scores, dose comparison", "setting": "[2]; effects at neither dose reached statistical significance", "result": "greater at the 400 compared to 200 mg doses"}]}
